One test deals with FLIP. Put plainly: FLIP immunoblot in HT-29 cells. Type of test: cell-based, human. As to the method: The data points represent the means of triplicate experiments and the error bars the standard errors of the means. […] The percent of apoptotic cells was then determined by the annexin V assay. […] The results shown are typical of two separate experiments. […] Immunoblots were performed for c-IAP-2, TRAF-1, TRAF-2, and FLIP. All lanes contain equal total protein.
The cells were washed twice in ice cold PBS and then lysed in 4° C. lysis buffer (50 mM HEPES, 150 mM NaCl, 1.5 mM MgCl2, 1 mM EGTA, 100 mM NaF, 10 mM Na2PO4, 1 mM Na3VO4, 10% glycerol, 1% TRITON™ X-100, and 1 μg/mL each of aprotinin, leupeptin, chymostatin, pepstatin) and clarified at 12,000 rpm at 4° C. for 15 minutes. The lysates were normalized for total protein concentration. […]
For immunodetection, the blocked blots were probed with primary antibody for 2 hours at 4° C. on a rocker. […] Alkaline phosphatase was detected by a colorimetric reaction using a BCIP (5-bromo-4-chloro-3-indolyl phosphate)/NBT (nitroblue tetrazolium) kit (Zymed).
Since HCT-116 colon cancer cells have relatively low levels of FLIP compared with other cancer cell lines (FIG. 13A), they were transfected with human c-FLIP. HCT-116 cells that were transfected with human c-FLIP or empty vector were transiently suspended and allowed to readhere in the presence of BAY 11-7085 for 8 hours. […]
(In general: A western blot detects proteins with antibodies after separation by electrophoresis.)

For the next test, the system named is HT-29 cells. The test can be described thus: Intraabdominal seeding model, intraperitoneal injection of colon cancer cells into athymic mice (21 days). Format: in vivo, mouse. The conditions noted are these: HT-29 IP in athymic mice, BAY 11-7085 (1 mg/kg) IP 24 hours earlier, then twice weekly, n = 6. The text has this:
FIG. 6 is a group of photographs showing an intraabdominal seeding model. FIGS. 6A, B, C show tumor implants of the liver of three athymic mice 21 days after receiving intraperitoneal injections of HT-29 cells. The mice were pretreated and treated for a total of 21 days with DMSO twice weekly. […] The mouse was pretreated and treated for a total of 21 days with DMSO twice weekly. FIG. 6E is a micrograph showing tumor invasion through the liver capsule. This section was obtained from the tumor implant from the mouse in FIG. 6A. […] FIG. 6G, (liver), FIG. 6H, (abdominal wall), and FIG. 6I, (intestinal) show tumor implants in three athymic mice 21 days after receiving intraabdominal injections of HCT-116 cells. All of the mice were treated with 5 mg/kg of BAY 11-7085 twice weekly.
HT-29 and HCT-116 cells were harvested in 0.25% trypsin-PBS-EDTA, washed once in media and PBS, and resuspended in PBS at 1 million cells per 200 μL. […] Subcutaneous tumor sizes were determined by measuring the length and width with calipers. […]
During colorectal cancer surgery, seeding of the peritoneal cavity by tumor cells with tumor cell implantation of the peritoneal surfaces can occur. Seeding results from the transient suspension of cancer cells, through a loss of adhesion either naturally ro because of surgical displacement, followed by readhesion to other tissues. […]

Values joined by “and” are separate entries in the source; they are usually repeats but may differ in a detail not shown here. Equal values may be shown once.

The values that follow come from patent US20110251135A1, “INHIBITORS OF PERITONEAL SEEDING OF CANCER CELLS” (University of Utah Research Foundation, priority 2008, published 2011).

With `CC(C)(C)c1ccc(S(=O)(=O)/C=C/C#N)cc1` [BAY 11-7085, (2E)-3-[4-(tertiarybutylphenyl)sulfonyl]-2-propenenitrile], the “expression of the 54 kilodalton (long) isoform of FLIP” value in the test with FLIP (adherent HT-29, 20 μM) is “only a slight diminution”. The “FLIP expression in readhering HT-29 cells” value in the test on FLIP (readhering HT-29, 3 hours) is reported as “caused the down-regulation of FLIP after only 3 hours”. Besides, in the test on HT-29 cells, the “Liver Metastases (mice with metastases/n)” value is “none of the 6 and 0/6”; the “Peritoneal Metastases (mice with metastases/n)” value was 2 of 6 and 2/6.
